According to article PMC9225712, “Rational design of biodegradable sulphonamide candidates treating septicaemia by synergistic dual inhibition of COX-2/PGE2 axis and DHPS enzyme” (Journal of Enzyme Inhibition and Medicinal Chemistry, 2022):
Marks after values point to notes of the source that are not given here.

What was measured:
[1] = test system: Escherichia coli (RCMB 010052); assay: Inhibition zone, agar cup diffusion; conditions: RCMB010052, 24 h, read-out: inhibition zones (IZ) E.coli
[2] = test system: Staphylococcus epidermidis (RCMB 0100183); assay: Inhibition zone, agar cup diffusion; conditions: RCMB0100183, 24 h, read-out: inhibition zones (IZ) S. epidermidis
[3] = test system: Streptococcus mutans (RCMB 0100172); assay: Inhibition zone, agar cup diffusion; conditions: RCMB0100172, 24 h, read-out: inhibition zones (IZ) S. mutans
[4] = test system: Proteus vulgaris (RCMB 010085); assay: Inhibition zone, agar cup diffusion; conditions: RCMB010085, 24 h, read-out: inhibition zones (IZ) P. vulgaris
ovine COX-1 = target: T1, ovine COX-1 (Ovis aries, UniProt P05979); assay: In vitro COX-1 enzymatic assay (Cayman kit 560131); assay type: biochemical; conditions: Mean ± SEM of triplicate determinations
T1 construct: purchased Cayman Chemicals Inc. 560131
T1 sequence (P05979 25-600): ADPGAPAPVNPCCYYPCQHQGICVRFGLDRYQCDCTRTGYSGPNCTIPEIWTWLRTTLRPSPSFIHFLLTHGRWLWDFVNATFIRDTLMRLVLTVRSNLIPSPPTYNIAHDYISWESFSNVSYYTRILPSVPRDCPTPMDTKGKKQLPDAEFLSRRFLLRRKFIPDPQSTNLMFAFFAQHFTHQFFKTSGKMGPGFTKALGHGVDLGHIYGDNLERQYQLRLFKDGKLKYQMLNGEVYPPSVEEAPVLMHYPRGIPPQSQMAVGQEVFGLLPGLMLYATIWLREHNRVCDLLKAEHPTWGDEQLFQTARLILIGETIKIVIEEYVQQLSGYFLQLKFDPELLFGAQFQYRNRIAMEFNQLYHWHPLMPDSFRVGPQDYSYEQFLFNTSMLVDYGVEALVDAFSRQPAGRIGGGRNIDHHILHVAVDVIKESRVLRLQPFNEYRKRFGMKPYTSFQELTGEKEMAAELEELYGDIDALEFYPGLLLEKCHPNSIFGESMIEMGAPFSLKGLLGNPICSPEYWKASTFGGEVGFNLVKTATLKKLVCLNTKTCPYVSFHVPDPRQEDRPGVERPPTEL

[5] = test system: Pseudomonas aeruginosa (RCMB 0100243); assay: Inhibition zone, agar cup diffusion; conditions: RCMB0100243, 24 h, read-out: inhibition zones (IZ) P.aeruginosa
[6] = test system: Bacillus subtilis (RCMB 0100162); assay: Inhibition zone, agar cup diffusion; conditions: RCMB0100162, 24 h, read-out: inhibition zones (IZ) B. subtillis
[7] = test system: Salmonella typhi (RCMB 0100104); assay: Inhibition zone, agar cup diffusion; assay type: cell-based; conditions: Salmonella enterica, 24 h, read-out: inhibition zones (IZ) S. typhi
[8] = test system: Shigella dysenteriae (RCMB 0100542); assay: Inhibition zone, agar cup diffusion; assay type: cell-based; conditions: RCMB0100542, 24 h, read-out: inhibition zones (IZ) S. dysenteriae
[9] = test system: Staphylococcus aureus (RCMB 0100183); assay: Inhibition zone, agar cup diffusion; conditions: RCMB0100183, 24 h, read-out: inhibition zones (IZ) S. aureus
[10] = test system: Gram-positive and Gram-negative bacteria; assay: In vitro antibacterial screening, whole panel; assay type: cell-based; conditions: whole bacterial panel, result in words
human recombinant COX-2 = target: T2, human recombinant COX-2 (Homo sapiens, UniProt P35354); assay: In vitro COX-2 enzymatic assay (Cayman kit 560131); conditions: for SI COX-1/COX-2: COX-2 selectivity index: COX-1 IC50/COX-2 IC50
T2 sequence (P35354 18-604): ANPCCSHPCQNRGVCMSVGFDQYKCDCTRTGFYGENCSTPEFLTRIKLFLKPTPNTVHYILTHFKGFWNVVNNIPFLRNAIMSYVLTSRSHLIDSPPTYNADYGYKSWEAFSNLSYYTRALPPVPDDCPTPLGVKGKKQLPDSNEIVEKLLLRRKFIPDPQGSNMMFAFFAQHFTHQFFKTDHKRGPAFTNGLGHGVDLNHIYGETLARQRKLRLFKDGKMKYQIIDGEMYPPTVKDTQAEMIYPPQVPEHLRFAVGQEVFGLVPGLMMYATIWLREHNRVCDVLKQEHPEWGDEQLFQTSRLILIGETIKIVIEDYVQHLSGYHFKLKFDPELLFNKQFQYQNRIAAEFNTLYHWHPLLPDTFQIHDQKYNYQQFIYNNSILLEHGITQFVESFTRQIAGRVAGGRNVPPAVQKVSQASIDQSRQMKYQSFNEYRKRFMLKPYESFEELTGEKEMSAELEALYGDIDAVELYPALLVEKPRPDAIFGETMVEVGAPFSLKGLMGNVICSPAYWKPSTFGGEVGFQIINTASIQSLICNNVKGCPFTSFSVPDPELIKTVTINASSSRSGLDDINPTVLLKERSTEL

S. aureus Smith = conditions: for ED50: Staphylococcus aureus, in Mus musculus, read-out: ED50 against S. aureus infection; for ED50, protective effect against bacteremic infection, Staphylococcus aureus: mice, challenge dose 9.5x10^6 CFU/mouse ip, intragastric once a day for 7 days, survival
E. coli C11 = conditions: for ED50: Escherichia coli, C11, in Mus musculus, read-out: ED50 against E.coli infection; for ED50, protective effect against bacteremic infection, Escherichia coli: mice, challenge dose 7.1x10^3 CFU/mouse ip, intragastric once a day for 7 days, survival
gastric layers = assay: Gastric ulcerogenic activity; conditions: fasted male Wistar rats, oral 30 µmol/kg twice at 4 h interval
PGE2 = assay: Estimation of rat plasma PGE2; conditions: po 10 µmol/kg b.wt., 8 h after carrageenan; for % inhibition of PGE2-production: rat serum; for PGE2 serum conc.: rat, Mean ± SEM, n = 5
[11] = test system: carrageenan-induced paw edoema; assay: Carrageenan-induced paw edoema in mice; conditions: for ED50: Mus musculus, read-out: ED50 (95% confidence level); for ED50 / percentage anti-inflammatory activity (AI%) 8h: 8 h; for Thickness of edoema 0h / percentage anti-inflammatory activity (AI%) 2h / Thickness of edoema 2h / percentage anti-inflammatory activity (AI%) 4h / Thickness of edoema 4h / percentage anti-inflammatory activity (AI%) 6h / Thickness of edoema 6h / Thickness of edoema 8h / percentage anti-inflammatory activity (AI%) 8h: mice, po 10 µmol/kg b.wt.; for Thickness of edoema 0h: 0 h (before carrageenan); for Thickness of edoema 0h / Thickness of edoema 2h / Thickness of edoema 4h / Thickness of edoema 6h / Thickness of edoema 8h: Mean ± SEM, n = 5; for Thickness of edoema 2h: 2 h after carrageenan; for Thickness of edoema 4h: 4 h after carrageenan; for Thickness of edoema 6h: 6 h after carrageenan; for Thickness of edoema 8h: 8 h after carrageenan

SMILES	zone of inhibition at 1000 µg/mL [1] [mm]	zone of inhibition at 1000 µg/mL [2] [mm]	zone of inhibition at 1000 µg/mL [3] [mm]	zone of inhibition at 1000 µg/mL [4] [mm]	IC50 (ovine COX-1) [µM]	zone of inhibition at 1000 µg/mL [5] [mm]	zone of inhibition at 1000 µg/mL [6] [mm]	zone of inhibition at 1000 µg/mL [7] [mm]	zone of inhibition at 1000 µg/mL [8] [mm]	zone of inhibition at 1000 µg/mL [9] [mm]	in vitro antibacterial activity [10]	IC50 (human recombinant COX-2) [µM]	SI COX-1/COX-2 (human recombinant COX-2)	% inhibition of PGE2-production (PGE2) [%]	PGE2 serum conc. (PGE2) [pg/mL]	ED50 [11] [µmol/kg]	Thickness of edoema 0h [11] [mm]	percentage anti-inflammatory activity (AI%) 2h [11]	Thickness of edoema 2h [11]	percentage anti-inflammatory activity (AI%) 4h [11]	further results
O=C(c1cc(N=Nc2ccc(S(=O)(=O)Nc3nccs3)cc2)ccc1O)N1CCOCC1 [Compound 5m, 4-((4-Hydroxy-3-(morpholine-4-carbonyl)phenyl)diazenyl)-N-(thiazol-2-yl)benzenesulfonamide]	18	33	29	16	9.9	18	20	16	24	25	weak in vitro antibacterial activity	0.1 ± 0.0008	102.1								
O=C(O)c1cc(/N=N/c2ccc(S(=O)(=O)Nc3ccccn3)cc2)ccc1O [Sulfasalazine, reference compound]																					ED50 (S. aureus Smith): 314 µmol/kg; ED50, protective effect against bacteremic infection, Staphylococcus aureus (S. aureus Smith): 313.7 µmol/kg/day; ED50 (E. coli C11): 419 µmol/kg; ED50, protective effect against bacteremic infection, Escherichia coli (E. coli C11): 419.2 µmol/kg/day
Cc1ccnc(NS(=O)(=O)c2ccc(/N=N/c3ccc(O)c(C(=O)N4CCCCC4)c3)cc2)n1 [Compound 5k, 4-((4-Hydroxy-3-(piperidine-1-carbonyl)phenyl)diazenyl)-N-(4-methylpyrimidin-2-yl) benzenesulfonamide]	16	32	28	19	10.3 ± 0.08	14	18	14	25	19	weak in vitro antibacterial activity	0.09 ± 0.0003	111.9								
O=C(c1cc(/N=N/c2ccc(S(=O)(=O)Nc3ncccn3)cc2)ccc1O)N1CCCCC1 [Compound 5j, 4-((4-Hydroxy-3-(piperidine-1-carbonyl)phenyl)diazenyl)-N-(pyrimidin-2-yl) benzenesulfonamide]	14	30	27	17	12.2 ± 0.06	16	19	15	25	28	weak in vitro antibacterial activity	0.05 ± 0.0005	239.2	83.25	221.236 ± 4.62	10.9	0.67 ± 0.02	(15.79%)	0.80 ± 0.01^c mm	(51.39%)	Gastric ulcerogenic effect, histopathological examination of gastric layers (gastric layers): gastrointestinal safety profile; Thickness of edoema 4h [11]: 0.70 ± 0.01^c mm; percentage anti-inflammatory activity (AI%) 6h [11]: (70.73%); Thickness of edoema 6h [11]: 0.60 ± 0.01^c mm; Thickness of edoema 8h [11]: 0.53 ± 0.01^c mm; ED50 (S. aureus Smith): 302 µmol/kg; ED50, protective effect against bacteremic infection, Staphylococcus aureus (S. aureus Smith): 302.1 µmol/kg/day; ED50 (E. coli C11): 273 µmol/kg; ED50, protective effect against bacteremic infection, Escherichia coli (E. coli C11): 272.7 µmol/kg/day
O=C(O)Cc1ccccc1Nc1c(Cl)cccc1Cl [Diclofenac sodium, reference compound]														79.10	276.052 ± 5.60	11.5	0.69 ± 0.004	(-11.58%)	1.06 ± 0.03^c mm	(38.19%)	Gastric ulcerogenic effect, histopathological examination of gastric layers (gastric layers): erosion in the gastric layers; Gastric ulcerogenic effect, monitoring of isolated stomachs (gastric layers): signs of gastric ulcers and hyperaemia; Thickness of edoema 4h [11]: 0.89 ± 0.01^c mm; percentage anti-inflammatory activity (AI%) 6h [11]: (60.98%); Thickness of edoema 6h [11]: 0.80 ± 0.01^c mm; Thickness of edoema 8h [11]: 0.71 ± 0.01^c mm
Cc1ccc(-c2cc(C(F)(F)F)nn2-c2ccc(S(N)(=O)=O)cc2)cc1 [Celecoxib, reference compound]														71.18	380.636 ± 5.53	13.1	0.62 ± 0.01	(6.32%)^d	0.89 ± 0.01^c mm	(45.14%)	Thickness of edoema 4h [11]: 0.79 ± 0.01^c mm; percentage anti-inflammatory activity (AI%) 6h [11]: (64.39%); Thickness of edoema 6h [11]: 0.73 ± 0.03^c mm; percentage anti-inflammatory activity (AI%) 8h [11]: (70.87%); percentage anti-inflammatory activity (AI%) 8h ([11]; listed as celecoxib): 70.87%; Thickness of edoema 8h [11]: 0.67 ± 0.02^c mm
O=C(c1cc(/N=N/c2ccc(S(=O)(=O)Nc3nccs3)cc2)ccc1O)N1CCCCC1 [Compound 5i, 4-((4-Hydroxy-3-(piperidine-1-carbonyl)phenyl)diazenyl)-N-(thiazol-2-yl) benzenesulfonamide]	16	30	31	18	11.2 ± 0.11	18	19	15	22	25	weak in vitro antibacterial activity	0.08 ± 0.0008	136.6								
